In US11388924B2 (priority 2018, dated 2022):
Read-outs that look alike come from different tables or passages of the source.

Tests used:
[1] = 25° C., cited from earlier work
[2] = From the text: The neutralization reaction in vegetable glycerin is less favorable in view of the reduced solubility of CO2 (Nunes et al., 2013—Solubility of CO2 in glycerol at high pressures. J. of Fluid Phase Equilibria; 358: 105-107).
In an embodiment of the present disclosure, the experimental setup described by Bihong, et al., 2015 (Mechanisms of CO2 Capture into Monoethanolamine Solution with Different CO2 Loading during the Absorption/Desorption Processes. J. of Environmental Science technology; 49 (17): 10728-10735) was implemented. […] In a further embodiment of the present disclosure, the neutralization with CO2 was performed at pressures ranging from about 0.1 MPa to about 2.7 MPa.
The organic acid is typically selected based on volatility under vaping conditions, tastelessness, low toxicity or nontoxicity to human health, ease of manipulation, ability to form liquid salts and […] an unpleasant sensation such as shortness of breath. In a further embodiment of the present disclosure, the organic acid is glycolic acid.

[3] = 20° C.; cited from earlier work
[4] = pH 7.4; cited from earlier work
[5] = after absorption through the lung; cited from earlier work
[6] = pig's nasal mucosa; cited from earlier work

From the text for subjects: This sensation ranges from a smooth satisfying catch as the vapor travels down the throat to an intolerable harshness.

O=C=O [CO2]
number moles of CO2 dissolved ([1]; acetone, 0.52 MPa): 0.0876
number moles of CO2 dissolved ([1]; ethanol, 0.41 MPa): 0.0349
number moles of CO2 dissolved ([1]; propylene glycol, 0.38 MPa): 0.0100

O=C(O)CC(O)(CC(=O)O)C(=O)O [citric acid]
sensation produced by the acid used in the formulation (subjects; in vivo): unpleasant feeling

CC(O)C(=O)O (stereo not shown) [lactic acid]
sensation produced by the acid used in the formulation (subjects; in vivo): unpleasant feeling

O=C(O)CC(O)C(=O)O (stereo not shown) [malic acid]
sensation produced by the acid used in the formulation (subjects; acid in nicotine formulations): unpleasant feeling

CN1CCCC1c1cccnc1 (stereo not shown) [nicotine]
pH reached by neutralization with CO2 ([2]; about 25° C., about 0.41 MPa): ≤ 7.5
final pH after neutralization with CO2 ([2]; in water): 6.8
initial pH ([2]; pure nicotine in propylene glycol, before neutralization): above 9.5
burning sensation in the throat (subjects; in vivo): diminishes or disappears
feeling of shortness of breath (subjects; in vivo): waned or disappeared
pKa [3]: 6.15
nicotine ionized [4]: ~69%
nicotine unionized [4]: 31%
estimated time to reach the brain [5]: 10 to 20 s
permeation of the protonated form versus the unionized form [6]: higher than that for the unionized form
